Experimental data published in patent US20230085307A1, “PYRIDAZINONE COMPOUND AND HERBICIDE” (NISSAN CHEMICAL CORPORATION, priority 2019, published 2023).

What was measured:
late watergrass = assay: Test Example 1: herbicidal activity, application before weed generation under submerged conditions (Table 16, symbol A); format: in vivo, late watergrass (Echinochloa oryzicola); conditions: 320 g/ha applied herbicide
Procedure, shortened: (§1)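 Alluvial soil was flooded to 4 cm depth, weed seeds were sown mixed and 2.5-leaf rice seedlings were transplanted. On sowing day, the compound's emulsion, diluted in water to a set dose, was applied to the water surface. Plants grew at 25–30 °C and were scored 0–5 after three weeks.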

oval-leafed pondweed = assay: Test Example 1: herbicidal activity, application before weed generation under submerged conditions (Table 16, symbol C); format: in vivo, oval-leafed pondweed (Monochoria vaginalis); conditions: 320 g/ha applied herbicide
Procedure, shortened: as §1

Japanese bulrush = assay: Test Example 2: herbicidal activity, application during weed generation under submerged conditions (Table 17, symbol B); format: in vivo, Japanese bulrush (Schoenoplectus juncoides); conditions: AAH 320 g/ha; application during weed generation, submerged conditions
Procedure, shortened: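 Herbicide emulsion, diluted with water to the chosen amount, is applied onto 4 cm floodwater over alluvial soil where the weeds were co-sown and raised at 25–30° C. Application timing: 1–2 leaves. Assessment: three weeks afterwards.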

barnyard grass [1] = assay: Test Example 3: herbicidal effect by foliage application, Wagner pot (Table 18, symbol H); format: in vivo, barnyard grass (Echinochloa crus-galli); conditions: amount of applied herbicide 320 g/ha
Procedure, shortened: (§2)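 Plants were sown in alluvial soil held under 0.1–0.5 cm standing water and grown 14 days in a greenhouse at 25–30 °C. An emulsifiable formulation, water-diluted to the set dose, was then sprayed onto the foliage, and effects were scored three weeks later using previously defined criteria.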

rice flat sedge = assay: Test Example 3: herbicidal effect by foliage application, Wagner pot (Table 18, symbol E); format: in vivo, rice flat sedge (Cyperus iria); conditions: amount of applied herbicide 320 g/ha
Procedure, shortened: as §2

green foxtail [2] = assay: Test Example 4: herbicidal effect by soil treatment (Table 19, symbol G); format: in vivo, green foxtail (Setaria viridis); conditions: amount of applied herbicide 320 g/ha
Procedure, shortened: (§3)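 Herbicidal effect was rated 3 weeks after treatment, using the scoring criteria of an earlier test. The compound, formulated as an emulsion and diluted in water to a set herbicide amount, had been sprayed uniformly on soil over freshly sown seeds. Growth took place in a greenhouse at 25° C. to 30° C.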

barnyard grass [3] = assay: Test Example 4: herbicidal effect by soil treatment (Table 19, symbol H); format: in vivo, barnyard grass (Echinochloa crus-galli); conditions: amount of applied herbicide 320 g/ha
Procedure, shortened: as §3

velvetleaf = assay: Test Example 4: herbicidal effect by soil treatment (Table 19, symbol M); format: in vivo, velvetleaf (Abutilon theophrasti); conditions: amount of applied herbicide 320 g/ha
Procedure, shortened: as §3

redroot pigweed [4] = assay: Test Example 4: herbicidal effect by soil treatment (Table 19, symbol N); format: in vivo, redroot pigweed (Amaranthus retroflexus); conditions: amount of applied herbicide 320 g/ha
Procedure, shortened: as §3

chickweed [5] = assay: Test Example 4: herbicidal effect by soil treatment (Table 19, symbol P); format: in vivo, common chickweed (Stellaria media); conditions: amount of applied herbicide 320 g/ha
Procedure, shortened: as §3

southern crabgrass = assay: Test Example 5: herbicidal effect by foliage application, plastic box (Table 20, symbol F); format: in vivo, southern crabgrass (Digitaria ciliaris); conditions: foliage application, AAH 320 g/ha, evaluated three weeks after application
Procedure, shortened: (§4)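 Foliar spray test: emulsion formulation diluted in water to a set application rate, sprayed onto 14-day-old plants raised in diluvial soil at 25° C to 30° C under glass. Both herbicidal effect and crop effect rated visually three weeks later.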

green foxtail [6] = assay: Test Example 5: herbicidal effect by foliage application, plastic box (Table 20, symbol G); format: in vivo, green foxtail (Setaria viridis); conditions: foliage application, AAH 320 g/ha, evaluated three weeks after application
Procedure, shortened: as §4

blackgrass = assay: Test Example 5: herbicidal effect by foliage application, plastic box (Table 20, symbol J); format: in vivo, blackgrass (Alopecurus myosuroides); conditions: foliage application, AAH 320 g/ha, evaluated three weeks after application
Procedure, shortened: as §4

Italian ryegrass = assay: Test Example 5: herbicidal effect by foliage application, plastic box (Table 20, symbol K); format: in vivo, Italian ryegrass (Lolium multiflorum); conditions: foliage application, AAH 320 g/ha, evaluated three weeks after application
Procedure, shortened: as §4

redroot pigweed [7] = assay: Test Example 5: herbicidal effect by foliage application, plastic box (Table 20, symbol N); format: in vivo, redroot pigweed (Amaranthus retroflexus); conditions: foliage application, AAH 320 g/ha, evaluated three weeks after application
Procedure, shortened: as §4

chickweed [8] = assay: Test Example 5: herbicidal effect by foliage application, plastic box (Table 20, symbol P); format: in vivo, common chickweed (Stellaria media); conditions: foliage application, AAH 320 g/ha, evaluated three weeks after application
Procedure, shortened: as §4

Row | SMILES | Herbicidal effect on A: late watergrass (grade 0-5) (late watergrass) | Herbicidal effect on C: oval-leafed pondweed (grade 0-5) (oval-leafed pondweed) | herbicidal effect rating, B: Japanese bulrush (Japanese bulrush) | herbicidal effect on H: barnyard grass (barnyard grass [1]) | herbicidal effect on E: rice flat sedge (rice flat sedge) | herbicidal effect on G: green foxtail (green foxtail [2]) | herbicidal effect on H: barnyard grass (barnyard grass [3]) | herbicidal effect on M: velvetleaf (velvetleaf) | herbicidal effect on N: redroot pigweed (redroot pigweed [4]) | herbicidal effect on P: chickweed (chickweed [5]) | F: southern crabgrass, herbicidal effect (criteria 0-5) (southern crabgrass) | G: green foxtail, herbicidal effect (criteria 0-5) (green foxtail [6]) | J: blackgrass, herbicidal effect (criteria 0-5) (blackgrass) | K: Italian ryegrass, herbicidal effect (criteria 0-5) (Italian ryegrass) | N: redroot pigweed, herbicidal effect (criteria 0-5) (redroot pigweed [7]) | P: chickweed, herbicidal effect (criteria 0-5) (chickweed [8])
1 | C=C(C)C(=O)Oc1c(C)nn(C)c(=O)c1-c1c(-c2ccc(OC(F)F)cc2)sc2ccc(F)cc12 [2-281] | 5 (Herbicidal rate of 90% or more (almost completely withered)) | 4 (Herbicidal rate of 70% or more and less than 90%) | 4 (Herbicidal rate of 70% or more and less than 90%) | 5 (Herbicidal rate of 90% or more (almost completely withered)) | 5 (Herbicidal rate of 90% or more (almost completely withered)) | 4 (Herbicidal rate of 70% or more and less than 90%) | 4 (Herbicidal rate of 70% or more and less than 90%) | 4 (Herbicidal rate of 70% or more and less than 90%) | 5 (Herbicidal rate of 90% or more (almost completely withered)) | 4 (Herbicidal rate of 70% or more and less than 90%) | 4 (Herbicidal rate of 70% or more and less than 90%) | 4 (Herbicidal rate of 70% or more and less than 90%) | 4 (Herbicidal rate of 70% or more and less than 90%) | 5 (Herbicidal rate of 90% or more (almost completely withered)) | 5 (Herbicidal rate of 90% or more (almost completely withered)) | 5 (Herbicidal rate of 90% or more (almost completely withered))
2 | Cc1nn(C)c(=O)c(-c2c(-c3ccc(OC(F)F)cc3)sc3ccc(F)cc23)c1OC(=O)c1cccs1 [2-288] | 5 (Herbicidal rate of 90% or more (almost completely withered)) | 4 (Herbicidal rate of 70% or more and less than 90%) | 3 (Herbicidal rate of 40% or more and less than 70%) | 5 (Herbicidal rate of 90% or more (almost completely withered)) | 5 (Herbicidal rate of 90% or more (almost completely withered)) | 4 (Herbicidal rate of 70% or more and less than 90%) | 2 (Herbicidal rate of 20% or more and less than 40%) | 3 (Herbicidal rate of 40% or more and less than 70%) | 4 (Herbicidal rate of 70% or more and less than 90%) | 4 (Herbicidal rate of 70% or more and less than 90%) | 2 (Herbicidal rate of 20% or more and less than 40%) | 5 (Herbicidal rate of 90% or more (almost completely withered)) | 4 (Herbicidal rate of 70% or more and less than 90%) | 5 (Herbicidal rate of 90% or more (almost completely withered)) | 5 (Herbicidal rate of 90% or more (almost completely withered)) | 5 (Herbicidal rate of 90% or more (almost completely withered))
